Legend:
Assay in all cases: KINOMEscan competition binding
Conditions in all cases: compound 10.0 µM
[1] = target: FGFR1 (human) (UniProt P11362)
[2] = system: PIK3CA (human), P42336 [H1047Y]
[3] = target: MAPKAPK5 (human) (UniProt Q8IW41)
[4] = target: MAPK9 (human) (UniProt P45984)
[5] = target: ROS1 (human) (UniProt P08922)
[6] = target: MAP3K1 (human) (UniProt Q13233)
[7] = target: ACVR1B (human) (UniProt P36896)
[8] = target: CDK8 (human) (UniProt P49336)
[9] = target: MERTK (human) (UniProt Q12866)
[10] = target: PRKACB (human) (UniProt P22694)
[11] = target: BTK (human) (UniProt Q06187)
[12] = target: DAPK2 (human) (UniProt Q9UIK4)
[13] = target: RPS6KA5 KD2 (human) (UniProt O75582)
[14] = target: MARK2 (human) (UniProt Q7KZI7)
[15] = target: IRAK1 (human) (UniProt P51617)
[16] = system: FLT3 (human), P36888 [D835Y]
[17] = target: KDR (human) (UniProt P35968)
[18] = target: DYRK1A (human) (UniProt Q13627)
[19] = target: BLK (human) (UniProt P51451)
[20] = target: MYO3A (human) (UniProt Q8NEV4)
[21] = target: RAF1 (human) (UniProt P04049)
[22] = target: PRKX (human) (UniProt P51817)
[23] = target: PKMYT1 (human) (UniProt Q99640)
[24] = target: STK24 (human) (UniProt Q9Y6E0)
[25] = target: MAP3K6 (human) (UniProt O95382)
[26] = target: WEE1 (human) (UniProt P30291)
[27] = target: GSK3A (human) (UniProt P49840)
[28] = target: PRKG1 (human) (UniProt Q13976)
[29] = target: CDK2 (human) (UniProt P24941)
[30] = target: DDR1 (human) (UniProt Q08345)
[31] = target: SRPK1 (human) (UniProt Q96SB4)
[32] = target: PRKD2 (human) (UniProt Q9BZL6)
[33] = target: SRMS (human) (UniProt Q9H3Y6)
[34] = target: SGK110 (human) (UniProt P0C264)
[35] = target: MUSK (human) (UniProt O15146)
[36] = target: FGFR2 (human) (UniProt P21802)
[37] = target: CDKL2 (human) (UniProt Q92772)
[38] = target: TLK1 (human) (UniProt Q9UKI8)
[39] = target: CDK5 (human) (UniProt Q00535)
[40] = target: DMPK (human) (UniProt Q09013)
[41] = target: RIPK1 (human) (UniProt Q13546)
[42] = target: FER (human) (UniProt P16591)

MARK2 (human), sequence (Q7KZI7 whole entry, looked up): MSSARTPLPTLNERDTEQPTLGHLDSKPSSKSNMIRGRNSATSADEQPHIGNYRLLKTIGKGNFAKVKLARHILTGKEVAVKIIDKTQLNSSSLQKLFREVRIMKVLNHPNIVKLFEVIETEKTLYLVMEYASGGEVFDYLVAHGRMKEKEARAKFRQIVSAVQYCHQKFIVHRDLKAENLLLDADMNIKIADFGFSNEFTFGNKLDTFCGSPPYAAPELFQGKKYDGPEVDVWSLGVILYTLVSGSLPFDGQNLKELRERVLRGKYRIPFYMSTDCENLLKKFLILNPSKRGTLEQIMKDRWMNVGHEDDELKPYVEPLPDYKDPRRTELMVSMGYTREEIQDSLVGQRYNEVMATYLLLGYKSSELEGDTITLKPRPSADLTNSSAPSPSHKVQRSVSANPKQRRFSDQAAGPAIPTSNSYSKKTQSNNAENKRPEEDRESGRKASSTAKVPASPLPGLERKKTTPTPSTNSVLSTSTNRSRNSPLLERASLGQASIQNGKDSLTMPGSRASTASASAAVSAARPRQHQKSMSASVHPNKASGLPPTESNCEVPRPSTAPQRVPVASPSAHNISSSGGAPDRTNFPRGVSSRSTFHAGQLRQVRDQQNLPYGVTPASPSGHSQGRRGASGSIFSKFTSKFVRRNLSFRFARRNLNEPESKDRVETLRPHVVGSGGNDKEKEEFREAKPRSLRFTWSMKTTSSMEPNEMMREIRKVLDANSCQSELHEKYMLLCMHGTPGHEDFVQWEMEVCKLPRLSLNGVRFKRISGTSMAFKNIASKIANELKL
MAP3K6 (human), sequence (O95382 whole entry, looked up): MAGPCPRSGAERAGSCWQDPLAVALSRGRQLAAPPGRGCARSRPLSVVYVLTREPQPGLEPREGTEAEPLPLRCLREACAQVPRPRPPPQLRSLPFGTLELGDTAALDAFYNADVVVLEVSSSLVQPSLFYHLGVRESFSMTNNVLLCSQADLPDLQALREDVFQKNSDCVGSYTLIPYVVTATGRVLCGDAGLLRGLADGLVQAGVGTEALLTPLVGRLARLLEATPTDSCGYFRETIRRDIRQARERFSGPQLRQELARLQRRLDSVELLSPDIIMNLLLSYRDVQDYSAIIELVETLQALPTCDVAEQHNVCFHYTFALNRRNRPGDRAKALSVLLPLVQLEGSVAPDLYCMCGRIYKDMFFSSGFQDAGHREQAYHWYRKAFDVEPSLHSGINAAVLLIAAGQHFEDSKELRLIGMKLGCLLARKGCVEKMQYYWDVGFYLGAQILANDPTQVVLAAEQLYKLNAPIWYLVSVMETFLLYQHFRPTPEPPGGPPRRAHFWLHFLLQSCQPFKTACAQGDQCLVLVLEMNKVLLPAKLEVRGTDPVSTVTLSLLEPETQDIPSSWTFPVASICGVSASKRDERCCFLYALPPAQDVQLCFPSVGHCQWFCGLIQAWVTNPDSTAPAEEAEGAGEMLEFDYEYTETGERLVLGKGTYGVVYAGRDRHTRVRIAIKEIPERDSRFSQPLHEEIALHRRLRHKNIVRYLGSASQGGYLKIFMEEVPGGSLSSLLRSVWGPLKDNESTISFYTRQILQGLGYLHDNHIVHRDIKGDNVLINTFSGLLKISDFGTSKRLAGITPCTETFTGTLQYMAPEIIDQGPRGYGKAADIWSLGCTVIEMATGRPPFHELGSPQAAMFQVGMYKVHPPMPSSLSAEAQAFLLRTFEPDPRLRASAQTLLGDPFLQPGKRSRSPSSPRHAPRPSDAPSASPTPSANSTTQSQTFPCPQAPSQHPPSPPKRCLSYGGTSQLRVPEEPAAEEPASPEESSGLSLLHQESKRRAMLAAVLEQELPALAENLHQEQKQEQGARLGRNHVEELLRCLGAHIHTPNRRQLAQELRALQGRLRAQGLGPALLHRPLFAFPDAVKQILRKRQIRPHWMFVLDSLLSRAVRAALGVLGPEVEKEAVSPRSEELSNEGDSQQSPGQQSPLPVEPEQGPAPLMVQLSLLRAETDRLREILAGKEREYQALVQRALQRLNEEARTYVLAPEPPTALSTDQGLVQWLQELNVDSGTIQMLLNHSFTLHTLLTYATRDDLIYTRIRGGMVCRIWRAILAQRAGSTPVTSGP
BLK (human), sequence (P51451 whole entry, looked up): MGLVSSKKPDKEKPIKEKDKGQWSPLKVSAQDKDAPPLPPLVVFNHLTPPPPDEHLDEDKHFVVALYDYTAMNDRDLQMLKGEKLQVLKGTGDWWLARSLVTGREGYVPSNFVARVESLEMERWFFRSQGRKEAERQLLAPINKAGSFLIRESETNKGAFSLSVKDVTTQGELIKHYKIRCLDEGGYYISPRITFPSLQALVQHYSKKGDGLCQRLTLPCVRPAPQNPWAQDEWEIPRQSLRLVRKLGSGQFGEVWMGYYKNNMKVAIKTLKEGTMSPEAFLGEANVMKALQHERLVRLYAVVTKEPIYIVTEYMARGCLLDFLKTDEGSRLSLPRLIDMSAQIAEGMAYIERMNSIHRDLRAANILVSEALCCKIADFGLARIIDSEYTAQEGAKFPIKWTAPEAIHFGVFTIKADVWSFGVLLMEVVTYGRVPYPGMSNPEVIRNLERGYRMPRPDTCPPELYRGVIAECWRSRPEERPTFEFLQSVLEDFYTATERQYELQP
TLK1 (human), sequence (Q9UKI8 whole entry, looked up): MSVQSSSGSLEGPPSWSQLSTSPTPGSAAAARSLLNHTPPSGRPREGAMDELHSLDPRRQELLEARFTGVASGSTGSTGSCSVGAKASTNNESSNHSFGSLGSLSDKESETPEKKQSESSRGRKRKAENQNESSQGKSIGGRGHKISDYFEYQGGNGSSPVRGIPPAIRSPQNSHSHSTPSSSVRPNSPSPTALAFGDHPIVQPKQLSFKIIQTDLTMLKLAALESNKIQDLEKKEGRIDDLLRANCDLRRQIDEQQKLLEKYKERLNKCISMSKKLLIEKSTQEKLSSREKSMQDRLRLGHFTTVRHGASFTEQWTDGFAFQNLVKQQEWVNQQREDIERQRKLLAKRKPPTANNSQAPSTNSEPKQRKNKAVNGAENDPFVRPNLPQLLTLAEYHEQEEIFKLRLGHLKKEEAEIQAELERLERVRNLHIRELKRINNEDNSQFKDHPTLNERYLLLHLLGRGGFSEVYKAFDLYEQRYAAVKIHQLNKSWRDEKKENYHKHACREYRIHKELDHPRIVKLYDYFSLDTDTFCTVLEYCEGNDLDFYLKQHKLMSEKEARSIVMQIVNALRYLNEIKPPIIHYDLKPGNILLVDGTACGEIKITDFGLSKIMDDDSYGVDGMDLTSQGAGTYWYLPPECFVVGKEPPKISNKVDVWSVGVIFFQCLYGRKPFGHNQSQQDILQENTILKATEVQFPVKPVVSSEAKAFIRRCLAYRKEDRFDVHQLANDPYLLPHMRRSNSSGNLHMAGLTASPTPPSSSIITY
DDR1 (human), sequence (Q08345 whole entry, looked up): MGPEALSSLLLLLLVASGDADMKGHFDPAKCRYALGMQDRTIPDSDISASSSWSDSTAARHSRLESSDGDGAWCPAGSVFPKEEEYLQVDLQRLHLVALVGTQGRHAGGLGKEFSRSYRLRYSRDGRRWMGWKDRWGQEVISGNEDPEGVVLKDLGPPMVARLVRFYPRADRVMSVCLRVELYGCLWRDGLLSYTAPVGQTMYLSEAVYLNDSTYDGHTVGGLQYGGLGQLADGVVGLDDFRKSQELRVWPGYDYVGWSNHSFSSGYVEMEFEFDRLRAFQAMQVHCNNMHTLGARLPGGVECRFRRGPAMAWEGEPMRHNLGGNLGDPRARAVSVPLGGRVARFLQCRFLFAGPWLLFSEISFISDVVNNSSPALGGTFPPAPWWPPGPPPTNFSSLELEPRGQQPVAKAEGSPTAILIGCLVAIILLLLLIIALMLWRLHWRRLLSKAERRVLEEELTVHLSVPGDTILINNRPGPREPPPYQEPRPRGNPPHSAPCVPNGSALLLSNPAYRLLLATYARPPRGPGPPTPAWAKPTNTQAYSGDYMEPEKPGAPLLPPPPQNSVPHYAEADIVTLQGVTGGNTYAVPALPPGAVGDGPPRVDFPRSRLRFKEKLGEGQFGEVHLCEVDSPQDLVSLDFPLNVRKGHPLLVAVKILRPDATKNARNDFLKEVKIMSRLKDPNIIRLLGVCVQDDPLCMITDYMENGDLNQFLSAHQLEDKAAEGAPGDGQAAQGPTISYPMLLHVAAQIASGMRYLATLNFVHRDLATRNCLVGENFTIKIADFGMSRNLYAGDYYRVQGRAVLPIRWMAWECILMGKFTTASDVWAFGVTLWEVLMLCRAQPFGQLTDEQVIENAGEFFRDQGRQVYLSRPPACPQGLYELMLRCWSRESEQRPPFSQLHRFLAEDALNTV
SGK110 (human), sequence (P0C264 whole entry, looked up): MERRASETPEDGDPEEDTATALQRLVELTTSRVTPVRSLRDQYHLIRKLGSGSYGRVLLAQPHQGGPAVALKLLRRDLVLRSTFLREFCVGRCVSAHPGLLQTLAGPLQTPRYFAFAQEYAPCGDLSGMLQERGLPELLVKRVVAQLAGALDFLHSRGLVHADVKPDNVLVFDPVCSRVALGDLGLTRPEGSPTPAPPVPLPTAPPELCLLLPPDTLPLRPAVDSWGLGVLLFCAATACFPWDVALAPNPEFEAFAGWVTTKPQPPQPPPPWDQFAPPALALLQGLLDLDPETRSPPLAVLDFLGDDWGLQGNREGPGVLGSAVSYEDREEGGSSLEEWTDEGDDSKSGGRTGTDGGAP
STK24 (human), sequence (Q9Y6E0 whole entry, looked up): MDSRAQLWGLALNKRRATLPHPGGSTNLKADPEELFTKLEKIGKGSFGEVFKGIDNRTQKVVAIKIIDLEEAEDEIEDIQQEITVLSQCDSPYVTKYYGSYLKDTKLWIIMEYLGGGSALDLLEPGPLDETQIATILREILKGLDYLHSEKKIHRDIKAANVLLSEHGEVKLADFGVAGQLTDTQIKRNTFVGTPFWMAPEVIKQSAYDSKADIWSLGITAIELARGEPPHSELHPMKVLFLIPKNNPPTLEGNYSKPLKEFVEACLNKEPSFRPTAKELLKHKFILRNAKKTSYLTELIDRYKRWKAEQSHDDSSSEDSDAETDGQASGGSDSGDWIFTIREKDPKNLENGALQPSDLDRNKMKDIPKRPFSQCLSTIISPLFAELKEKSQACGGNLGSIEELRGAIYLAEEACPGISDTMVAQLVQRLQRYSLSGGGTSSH

kinase still bound, per cent of control [1]: 100% | kinase still bound, per cent of control [2]: 100% | kinase still bound, per cent of control [3]: 100% | kinase still bound, per cent of control [4]: 59% | kinase still bound, per cent of control [5]: 100% | kinase still bound, per cent of control [6]: 100% | kinase still bound, per cent of control [7]: 89% | kinase still bound, per cent of control [8]: 100% | kinase still bound, per cent of control [9]: 100% | kinase still bound, per cent of control [10]: 100% | kinase still bound, per cent of control [11]: 100% | kinase still bound, per cent of control [12]: 67% | kinase still bound, per cent of control [13]: 100% | kinase still bound, per cent of control [14]: 78% | kinase still bound, per cent of control [15]: 100% | kinase still bound, per cent of control [16]: 16% | kinase still bound, per cent of control [17]: 100% | kinase still bound, per cent of control [18]: 2.3% | kinase still bound, per cent of control [19]: 100% | kinase still bound, per cent of control [20]: 95% | kinase still bound, per cent of control [21]: 91% | kinase still bound, per cent of control [22]: 100% | kinase still bound, per cent of control [23]: 100% | kinase still bound, per cent of control [24]: 69% | kinase still bound, per cent of control [25]: 64% | kinase still bound, per cent of control [26]: 80% | kinase still bound, per cent of control [27]: 0% | kinase still bound, per cent of control [28]: 61% | kinase still bound, per cent of control [29]: 7.4% | kinase still bound, per cent of control [30]: 100% | kinase still bound, per cent of control [31]: 89% | kinase still bound, per cent of control [32]: 99% | kinase still bound, per cent of control [33]: 86% | kinase still bound, per cent of control [34]: 100% | kinase still bound, per cent of control [35]: 100% | kinase still bound, per cent of control [36]: 100% | kinase still bound, per cent of control [37]: 87% | kinase still bound, per cent of control [38]: 36% | kinase still bound, per cent of control [39]: 47% | kinase still bound, per cent of control [40]: 98% | kinase still bound, per cent of control [41]: 100% | kinase still bound, per cent of control [42]: 100%
SMILES: Cn1cc(C2=C(c3ccc(Cl)cc3Cl)C(=O)NC2=O)c2ccccc21

Source: the kinase profiling compilation of Christmann-Franck et al. (2016)
